Assays:
[1] = test system: human native PAM; test: bio-ADM maturation activity (AMA) in samples of healthy subjects before and after administration; format: in vivo
Experimental: Human serum was used as source of human native PAM. Each sample (20 μl) was diluted two-fold in 100 mM Tris-HCl in duplicate. The amidation reaction was initiated by addition of 160 μl of NT-ADM antibodies (HAM8101, AK1373, AK1388, AK1398 or AK1434) or MR-ADM antibodies (ADM43, ADM38, ADM41, ADM2901, ADM2902 and ADM2903) containing PAM-reaction buffer (100 mM Tris-HCl, pH 7.5, 6.25 μM CuSO4, 2.5 mM Ascorbate, 125 μg/mL Catalase, 62.5 μM Amastatin, 250 μM Leupeptin, and 36 ng/mL synthetic 1-53 Adrenomedullin-Gly as substrate). The final antibody concentrations were 100 μg/mL, respectively. Afterwards, 100 μl of each individual reaction of duplicated samples were combined and transferred into 20 μl of 200 mM EDTA to terminate the amidation reaction and thus to generate a t=0 minutes reaction time-point followed by incubation at 37° C. for 40 minutes. Afterwards the non-terminated reactions were stopped with 10 μl of 200 mM EDTA. To determine the PAM activity in NT-ADM antibody containing samples, bio-ADM was quantified in each reaction using the Sphingotest® bio-ADM immunoassay (Weber et al. 2017, supra). The MR-ADM antibody containing reaction was transferred to an alternative bio-ADM assay (description below). A control reaction without antibodies was measured in both bio-ADM assays. For each sample the difference between t=40 min and t=0 min bio-ADM concentration was calculated. PAM activity is described as ng bio-ADM formed per hour and L of sample and was normalized to the reaction without antibody addition, which was set as 100%.
The formation of bio-ADM from ADM-Gly by recombinant human PAM enzyme and the invivo influence of the N-terminal anti-Adrenomedullin antibody HAM8101 using samples from healthy subjects that received HAM8101 was investigated by measuring the bio-ADM maturation activity (AMA).
Samples from n=3 subjects from each administration group before and 1 hour after administration of HAM8101 were used. Activity was determined as described for Serum samples in example 5b). The assay was calibrated using recombinant human PAM of known activity (InVivo Biotech Services GmbH, Hennigsdorf). Calibrators, controls and samples were treated in the same manner. The produced bio-ADM in the reaction-samples was quantified using the Sphingotest® bio-ADM assay (Weber et al., 2017). For each sample the difference of the t=40 min and t=0 min signal (RLUs, relative light units) was calculated and the signal (RLU(t40−t0 min)) of the calibrator was used to determine the AMA in tested serum samples. AMA is expressed as ng bio-ADM formed per hour and Liter of sample (ng/[h*L]).

[2] = test system: recombinant human PAM; test: Formation of bio-ADM from ADM-Gly by recombinant human PAM; format: biochemical
Experimental: The formation of bio-ADM from c-terminally glycinated 1-53 Adrenomedullin (ADM-Gly) by recombinant human PAM and the influence of the N-terminal anti-Adrenomedullin antibodies on the bio-ADM formation from ADM-Gly by PAM was investigated.
In a first step, 200 μl per well ADM-Gly (50 ng/mL) dissolved in buffer (300 mM potassium-phosphate, 100 mM NaCl, 10 mM Na-EDTA, 5 g/L BSA, pH 7.0) was added to microtiter plate wells that were precoated with an anti-MR-ADM antibody, and were incubated for 1 h at 22° C. under agitation (600 rpm). Unbound material was removed by washing. In a second step, varying concentrations (0-100 μg/mL) of either N-terminal- (HAM8101), C-terminal anti-Adrenomedullin antibody specifically blocking the glycinated C-terminus of ADM-Gly or an unspecific antibody (control antibody) was added to the wells (200 μl per well) for 1 h at 22° C. under agitation (600 rpm). The respective antibodies were diluted in buffer as described above. Unbound antibodies were removed by washing. […] After a final washing step, the remaining chemiluminescence was measured for 1 s per well with a Centro LB 960 microtiter plate luminescence reader (Berthold Technologies). To evaluate the velocity of the enzyme PAM, the signal for bio-ADM measured at t=0 minutes was subtracted from the signal for bio-ADM at t=40 minutes for each antibody concentration. […]

[3] = test system: native human plasma PAM; test: Formation of bio-ADM by native human PAM in Li-Heparin plasma, with and without exogenous ADM-Gly; format: biochemical; conditions: without addition of exogenous ADM-Gly; HAM8101 300 μg/mL; 90 minutes
Experimental: In a further experiment we investigated the formation of bio-ADM from ADM-Gly by native human plasma PAM and the influence of N-terminal- and mid-regional anti-adrenomedullin antibodies.
Human Li-Heparin plasma (pool of 3 specimen) was used as source of human native PAM. The amidation reaction was performed in a total volume of 120 μl at 37° C. 96 μl of plasma were spiked with either HAM8101 (375 μg/mL final concentration) or ADM-Gly (5 ng/mL final concentration) or with both. As control, equal volumes of 100 mM Tris-HCl, pH 7.5 were added to untreated plasma. The prepared samples were allowed to chill for 15 minutes at room temperature. The amidation reaction was started by addition of 24 μl of PAM-reaction buffer resulting in final concentrations of 2 mM L-Ascorbate and 5 μM CuSO4, respectively. The final concentrations of HAM8101 and ADM-Gly were 300 μg/mL and 4 ng/mL, respectively. The reaction was allowed to proceed for 90 minutes at 37° C. After 0 min, 30 min, 60 min and 90 min of incubation, the reaction was stopped by addition of 20 mM EDTA (final concentration). The concentration of bio-ADM in the reaction sample was quantified using the Sphingotest® bio-ADM immunoassay as described recently (Weber et al. 2017. JALM 2(2): 222-233).

HAM8101: humanized N-terminal anti-ADM antibody, heavy chain SEQ ID No. 35, light chain SEQ ID No. 36
AMA increased by ([1]; group 1 (0.5 mg/kg), after 1 hour): approximately 60% | AMA increased by ([1]; group 1 (0.5 mg/kg), after 4 hours): ~40% | AMA increased by ([1]; group 1 (0.5 mg/kg), after 24 hours): ~52% | AMA increased by ([1]; group 2 (2 mg/kg), after 1 hour): approximately 27% | AMA increased by ([1]; group 2 (2 mg/kg), after 4 hours): ~25% | AMA increased by ([1]; group 2 (2 mg/kg), after 24 hours): ~40% | AMA increased by ([1]; group 3 (8 mg/kg), after 1 hour): approximately 65% | AMA increased by ([1]; group 3 (8 mg/kg), after 4 hours): ~48% | AMA increased by ([1]; group 3 (8 mg/kg), after 24 hours): approximately 60% | PAM activity compared to the reaction without antibody addition (set at 100%) ([2]; 10 μg/mL antibody, 40 minutes, 37° C., 2 mM L-Ascorbate): 233% | influence on conversion of ADM-Gly to bio-ADM by PAM ([2]; antibody 0-100 μg/mL, FIG. 7): significant accelerating effect | change in bio-ADM concentration [3]: No change in bio-ADM concentration

— patent publication US12662530B2, “Anti-ADM-antibodies binding to the free N-terminus for accelerated transition of ADM-Gly to bio-ADM in patients with ADM-Gly/ bio-ADM ratio above a threshold and combination with vitamin C” (SphingoTec GmbH, priority 2020, dated 2026)
